Reference: article PMC8282186, “Identification of a gustatory receptor tuned to sinigrin in the cabbage butterfly Pieris rapae” (PLoS Genetics, 2021)

Molecular target: T1, PrapGr28 (Pieris rapae, UniProt Z9RYY0XAY3)
T1 construct: also UAS-PrapGr28 in Drosophila Gr5a sweet neurons; oligomer unknown
T1 sequence (Z9RYY0XAY3 1-399): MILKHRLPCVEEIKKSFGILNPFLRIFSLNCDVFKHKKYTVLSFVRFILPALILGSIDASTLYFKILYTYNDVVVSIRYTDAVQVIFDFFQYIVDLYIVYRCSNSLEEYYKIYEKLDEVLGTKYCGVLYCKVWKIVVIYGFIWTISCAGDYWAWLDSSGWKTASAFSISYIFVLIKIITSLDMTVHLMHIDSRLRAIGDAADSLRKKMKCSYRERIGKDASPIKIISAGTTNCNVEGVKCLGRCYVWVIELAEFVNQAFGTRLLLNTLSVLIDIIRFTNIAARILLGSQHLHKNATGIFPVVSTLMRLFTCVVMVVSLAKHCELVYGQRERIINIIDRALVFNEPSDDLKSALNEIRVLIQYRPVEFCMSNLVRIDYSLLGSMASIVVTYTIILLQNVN
Assay: two-electrode voltage clamp, inward current in Xenopus oocytes
Format: cell-based
Details: agonist; PrapGr28 expressed alone; holding potential -80 mV; 0.1-50 mM dose range; also tip recording of Drosophila L-type sensilla expressing PrapGr28
Description: two-electrode voltage clamp, inward current in Xenopus oocytes on […]28 | the oocytes expressing […]28 selectively responded to sinigrin

For `C=CC/C(=N/OS(=O)(=O)O)S[C@@H]1O[C@H](CO)[C@@H](O)[C@H](O)[C@H]1O` [sinigrin], the “inward current response at 1 mM” value was “the oocytes expressing PrapGr28 selectively responded to sinigrin”.
